Results taken from publication PMC6979384, “Characterization of the plant homeodomain (PHD) reader family for their histone tail interactions” (Epigenetics & Chromatin, 2020).

Experiments:
Assay in all cases: dCypher AlphaScreen Phase A (reader titration)
Format in all cases: binding, human
Conditions in all cases: 100 nM peptide, 23 °C, n = 2
[1] = tested on: CHD4 (PPCC)
Method: (§1) Fig. 3 dCypher histone peptide-binding assays define the PTM recognition preference of PHD proteins with high sensitivity. a–h Binding curves to determine optimal reader protein concentration for full peptide library screening on the dCypher® AlphaScreen® platform (see “Methods”). X-axes are log(protein concentration (M)) at constant peptide concentration (100 nM); Y-axes are AlphaScreen counts, representing relative strength of binding (n = 2; error bars are S.D.). i Heat map represents relative binding to H3 N-terminal peptides (left) by PHD-containing GST-tagged proteins (top) using the dCypher AlphaScreen platform. Protein concentrations can be found in Additional file 5: Table S4. Binding strength is indicated by color gradient from green to yellow (stronger to weaker). The asterisk (*) by MLL5 signifies its general preference for H3K4 methylation. Alpha counts (n = 2) were normalized individually for each protein to the highest signal for each respective assay. For full dCypher peptide screen data, see Additional file 4: Table S3
(§2) We next employed a highly sensitive proximity-based AlphaScreen histone peptide assay (dCypher®) to provide a third and orthogonal approach to analyzing the histone binding preferences for a subset of the 31 PHD proteins with respect to various histone tail PTMs. In this assay, biotinylated peptides are bound to streptavidin “donor” beads and the GST-tagged reader domains bound to Glutathione “acceptor” beads. […] Initial binding assays were conducted for each fusion protein using three peptides [H3 (1–20) with K4me0, H3K4me3 or H3K9me3] to determine the optimal reader domain concentration for full peptide library studies (Fig. 3a–h; Additional file 4: Table S3 and Additional file 5: Table S4). […]
(§3) The dCypher peptide screen assay was performed as previously described. […] Plates were incubated at 23 °C in subdued lighting for 60 min and AlphaLISA signal measured on a PerkinElmer 2104 EnVision (680 nm laser excitation, 570 nm emission filter ± 50 nm bandwidth). […]

[2] = tested on: PHRF1 (RP)
Method: as §1, §2, §3

[3] = tested on: TRIM66 (PB)
Method: as §1, §2, §3

**Q.** Which “relative binding over a range of protein concentration” value [1] does the source give for H3K9me3: H3 1-20 [Peptide H3K9me3] here?
**A.** Its value is “stronger interaction with H3K9me3 compared with the unmodified peptide”.

**Q.** What about the “binding preference at low versus high protein concentrations” value [2] of the same substance?
**A.** Its value is “distinct binding preference for the H3K9me3 peptide over the H3K4me0 peptide”.

**Q.** What about the “relative binding over a range of protein concentration” value [3] of the same substance?
**A.** Its value is “stronger interaction with H3K9me3 compared with the unmodified peptide”.
